Measurements as given in patent US20160202242A1, “CELL DEATH-INDUCING AGENT, CELL GROWTH-INHIBITING AGENT, AND PHARMACEUTICAL COMPOSITION FOR TREATMENT OF DISEASE CAUSED BY ABNORMAL CELL GROWTH” (Nitto Denko Corporation, priority 2014, published 2016).
d = 2'-deoxy (DNA); r = 2'-OH (RNA)

Key:
Type in all cases: cell-based, human
P21 mRNA [1] = test: P21 mRNA level by quantitative PCR 1 day after siRNA transfection; conditions: PANC-1, MIA PaCa-2, or A549 cells, GST-π siRNA 50 nM or 100 nM, vs control siRNA
Method: As examples of cancer cells, 1×10^5 M7609 cells (human colorectal cancer cells having KRAS mutation) and PANC-1 cells (human pancreatic cancer cells having KRAS mutation) were inoculated to 6 cm Petri dishes and cultured for 18 hours in Roswell Park Memorial Institute 1640 (RPMI 1640, Sigma-Aldrich Corp.) supplemented with 10% fetal bovine serum (FBS) and 0.5% L-glutamine. The culture conditions were 37° C. and 5% CO2, unless otherwise specified. Moreover, as an example of cancer cells, 0.5×10^5 A549 cells (human lung cancer cells having KRAS mutation) were inoculated to a 6 cm Petri dish and cultured for 18 hours in a Dulbecco's modified Eagle's medium (DMEM, Sigma-Aldrich Corp.) supplemented with 10% FBS and 1% L-glutamine. […]
GST-π siRNA and P21 siRNA each at a final concentration of 50 nM, GST-π siRNA or P21 siRNA at a final concentration of 50 nM (both added with control siRNA at a final concentration of 50 nM), or GST-π siRNA at a final concentration of 100 nM (without the addition of control siRNA) were added to each of the Petri dishes containing the PANC-1, MIA PaCa-2, or A549 cells. […] After culture for 1 day without the replacement of the medium, the GST-π mRNA level and the P21 mRNA level were quantified by quantitative PCR using 7300 Real Time PCR System (Applied Biosystems, Inc.).

M7609 cells = test: Senescence beta-galactosidase staining 13 days after inoculation, GST-π knocked down three times; conditions: GST-π siRNA 30 nM added three times
Method: As examples of cancer cells, 1×10^5 M7609 cells (human colorectal cancer cells having KRAS mutation) and PANC-1 cells (human pancreatic cancer cells having KRAS mutation) were inoculated to 6 cm Petri dishes and cultured for 18 hours in Roswell Park Memorial Institute 1640 (RPMI 1640, Sigma-Aldrich Corp.) supplemented with 10% fetal bovine serum (FBS) and 0.5% L-glutamine. The culture conditions were 37° C. and 5% CO2, unless otherwise specified. Moreover, as an example of cancer cells, 0.5×10^5 A549 cells (human lung cancer cells having KRAS mutation) were inoculated to a 6 cm Petri dish and cultured for 18 hours in a Dulbecco's modified Eagle's medium (DMEM, Sigma-Aldrich Corp.) supplemented with 10% FBS and 1% L-glutamine. Furthermore, as an example of cancer cells, 1×10^5 MIA PaCa-2 cells (human pancreatic cancer cell having KRAS mutation) were inoculated to a 6 cm Petri dish and cultured for 18 hours in DMEM supplemented with 10% FBS and 1% L-glutamine. Furthermore, as an example of cancer cells, 0.5×10^5 HCT116 cells (human colorectal cancer cells having KRAS mutation) were inoculated to a 6 cm Petri dish and cultured for 18 hours in McCoy's 5A Medium (McCoy, Sigma-Aldrich Corp.) supplemented with 10% FBS and 0.5% L-glutamine.
Whether the cell senescence as shown in FIGS. 6 to 9 was could be induced by knocking down GST-π was tested using the M7609 cells. […]

P21 mRNA [2] = test: P21 mRNA level quantified every day to the 4th day after siRNA addition; conditions: A549 or MIA PaCa-2 cells, siRNA 50 nM
Method: (§1) As examples of cancer cells, 1×10^5 M7609 cells (human colorectal cancer cells having KRAS mutation) and PANC-1 cells (human pancreatic cancer cells having KRAS mutation) were inoculated to 6 cm Petri dishes and cultured for 18 hours in Roswell Park Memorial Institute 1640 (RPMI 1640, Sigma-Aldrich Corp.) supplemented with 10% fetal bovine serum (FBS) and 0.5% L-glutamine. The culture conditions were 37° C. and 5% CO2, unless otherwise specified. Moreover, as an example of cancer cells, 0.5×10^5 A549 cells (human lung cancer cells having KRAS mutation) were inoculated to a 6 cm Petri dish and cultured for 18 hours in a Dulbecco's modified Eagle's medium (DMEM, Sigma-Aldrich Corp.) supplemented with 10% FBS and 1% L-glutamine. Furthermore, as an example of cancer cells, 1×10^5 MIA PaCa-2 cells (human pancreatic cancer cell having KRAS mutation) were inoculated to a 6 cm Petri dish and cultured for 18 hours in DMEM supplemented with 10% FBS and 1% L-glutamine. […]
Moreover, as for the case where GST-π siRNA or control siRNA at a final concentration of 50 nM was added to each of the Petri dishes containing the A549 cells or the MIA PaCa-2 cells, the P21 mRNA level was similarly quantified every day from the day of addition of GST-π siRNA or control siRNA to the 4th day.

[3] = tested on: PANC-1, MIA PaCa-2, or A549 cells; test: Number of cells counted after 5 days of culture, single siRNA transfection; conditions: siRNA 50 nM plus control siRNA 50 nM
Method: as §1
Meanwhile, the influence of GST-π siRNA and/or P21 siRNA on the number of cells was tested. […] After culture for 5 days without the replacement of the medium, the cells were dissociated and collected from the Petri dish by trypsin treatment, and the number of cells was counted.

[4] = tested on: A549 cells, MIA PaCa-2 cells, PANC-1 cells, and HCT116 cells; test: Phase difference images of cells after knockdown three times; conditions: knocked down three times; 7 days after inoculation
Method: As examples of cancer cells, 1×10^5 M7609 cells (human colorectal cancer cells having KRAS mutation) and PANC-1 cells (human pancreatic cancer cells having KRAS mutation) were inoculated to 6 cm Petri dishes and cultured for 18 hours in Roswell Park Memorial Institute 1640 (RPMI 1640, Sigma-Aldrich Corp.) supplemented with 10% fetal bovine serum (FBS) and 0.5% L-glutamine. The culture conditions were 37° C. and 5% CO2, unless otherwise specified. […]
First, for the PANC-1 cells, the MIA PaCa-2 cells, or the HCT116 cells, GST-π siRNA and P21 siRNA each at a final concentration of 25 nM, or GST-π siRNA or P21 siRNA at a final concentration of 25 nM (all added with control siRNA at a final concentration of 25 nM) were added to each of the Petri dishes, while for the A549 cells, GST-π siRNA and P21 siRNA each at a final concentration of 50 nM, or GST-π siRNA or P21 siRNA at a final concentration of 50 nM (added with control siRNA at a final concentration of 50 nM) were added to each of the Petri dishes. […] Seven days after the cell inoculation, the cells were dissociated and collected from the Petri dish by trypsin treatment, and the number of cells was counted. […]

Substance | amount of P21 mRNA (P21 mRNA [1]) | cell senescence (flat and large cells, blue color development by galactosidase staining) (M7609 cells) | expression level of P21 mRNA over time (P21 mRNA [2]) | number of cells, each siRNA alone [3] | cell morphology / cell senescence-like phenotype in phase difference image [4]
GST-π siRNA: siRNA against GST-π; sense GGGAGGCAAGACCUUCAUUtt (SEQ ID NO: 31), antisense AAUGAAGGUCUUGCCUCCCtg (SEQ ID NO: 32) (sense GGGAGGCAAGACCUUCAUUTT; antisense AAUGAAGGUCUUGCCUCCCTG; sugars from the 5' end r19 d2, backbone not given here) | increased | cell senescence was evoked | increased over time | the number of cells cannot be decreased with respect to the number of inoculated cells, though cell growth is inhibited | became flat and large cells
P21 siRNA: siRNA against P21; sense UCCUAAGAGUGCUGGGCAUtt (SEQ ID NO: 33), antisense AUGCCCAGCACUCUUAGGAtt (SEQ ID NO: 34) (sense UCCUAAGAGUGCUGGGCAUTT; antisense AUGCCCAGCACUCUUAGGATT; sugars from the 5' end r19 d2, backbone not given here) | – | – | – | the number of cells cannot be decreased with respect to the number of inoculated cells, though cell growth is inhibited | –
